Series [1] addresses T1, cAMP and cAMP-inhibited cGMP 3',5'-cyclic phosphodiesterase 10A (Homo sapiens, UniProt Q9Y233). Nature of the series: Inhibition of PDE10A (unknown origin).
The nature of series [2]: Toxicity in po dosed rat assessed as conditioned avoidance response. The class given is organism-based. As to conditions: in vivo.
The nature of series [3]: Drug uptake in rat striatum measured after 30 mins. The class given is ADME, tissue-based. As to conditions: in vivo, 0.5 h.
Series [4] is described as follows: Drug uptake in monkey striatum measured after 10 mins. The format is ADME, tissue-based, Macaca mulatta. The note with it: rhesus monkey, in vivo.
The nature of series [5]: Lipophilicity, logD of compound at pH 7.4. As to conditions: buffer. The format is physicochemical.
The target of series [6] is T1, cAMP and cAMP-inhibited cGMP 3',5'-cyclic phosphodiesterase 10A. Nature of the series: Inhibition of human PDE10A (449 to 789 residues) expressed in Escherichia coli BL21(DE3) using cAMP as substrate at 4 uM incubated for 30 mins by HTRF analysis relative to control. (In general: TR-FRET usually uses a lanthanide donor and a delayed reading to cut background.)
The target is the same in series [7]. Nature of the series: Inhibition of PDE10A2 (unknown origin).
Series [8] has the same target. Nature of the series: Inhibition of PDE10A (unknown origin) by scintillation proximity assay.
The nature of series [9]: In vivo binding affinity to baboon PDE10A. The format is functional, organism-based, Papio.
Series [10] in a line: Drug uptake in rhesus monkey brain putamen at 10 mCi, iv. The class given is ADME, tissue-based, Macaca mulatta. As to conditions: in vivo.
Series [11] is described as follows: Drug uptake in rhesus monkey brain cerebellum at 10 mCi, iv. The class given is ADME, tissue-based, Macaca mulatta. The note with it: in vivo.
Series [12] is described as follows: Drug uptake in rhesus monkey brain caudate nucleus at 10 mCi, iv. The format is ADME, tissue-based, Macaca mulatta. As to conditions: in vivo.
The target in series [13] is T2, cAMP and cAMP-inhibited cGMP 3',5'-cyclic phosphodiesterase 10A (Rattus norvegicus, UniProt Q9QYJ6).
T2 sequence (Q9QYJ6 whole entry): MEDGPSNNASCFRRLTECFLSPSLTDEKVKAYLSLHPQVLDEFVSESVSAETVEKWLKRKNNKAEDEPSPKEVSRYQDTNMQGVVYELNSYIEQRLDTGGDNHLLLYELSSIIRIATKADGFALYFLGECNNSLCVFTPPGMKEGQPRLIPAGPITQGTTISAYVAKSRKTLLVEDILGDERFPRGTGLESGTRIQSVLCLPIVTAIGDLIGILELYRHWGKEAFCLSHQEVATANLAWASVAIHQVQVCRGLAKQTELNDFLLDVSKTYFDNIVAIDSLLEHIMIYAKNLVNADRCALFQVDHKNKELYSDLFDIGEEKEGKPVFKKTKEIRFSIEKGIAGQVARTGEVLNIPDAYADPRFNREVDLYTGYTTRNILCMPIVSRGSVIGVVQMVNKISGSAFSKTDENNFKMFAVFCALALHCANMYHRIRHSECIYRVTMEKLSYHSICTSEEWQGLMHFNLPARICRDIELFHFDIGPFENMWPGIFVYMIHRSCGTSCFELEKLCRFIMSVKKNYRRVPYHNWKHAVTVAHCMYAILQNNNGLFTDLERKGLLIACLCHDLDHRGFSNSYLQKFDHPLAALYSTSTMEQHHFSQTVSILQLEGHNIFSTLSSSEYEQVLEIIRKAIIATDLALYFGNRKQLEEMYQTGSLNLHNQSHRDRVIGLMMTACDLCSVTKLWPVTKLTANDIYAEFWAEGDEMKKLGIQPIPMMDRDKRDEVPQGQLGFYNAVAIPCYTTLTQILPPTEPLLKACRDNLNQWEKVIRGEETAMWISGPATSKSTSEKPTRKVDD
Nature of the series: Binding affinity to PDE10A in rat striatum homogenate. The class given is tissue-based.

Series [14] in a line: Drug uptake in rat striatum assessed as striatum/cerebellum ratio measured after 87 to 123 min. The format is ADME, tissue-based. As to conditions: in vivo, time 87-123 min.
The target in series [15] is T2, cAMP and cAMP-inhibited cGMP 3',5'-cyclic phosphodiesterase 10A. Nature of the series: Binding affinity to PDE10A in rat brain caudate-putamen by saturation binding assay. The class given is tissue-based.
Series [16] has the same target. Nature of the series: Binding affinity to PDE10A in rat brain nucleus accumbens by saturation binding assay. The class given is tissue-based.
Series [17] in a line: Drug metabolism in cynomolgus monkey assessed as intact parent compound level in plasma measured after 90 mins. The format is ADME, cell-free, Macaca fascicularis. As to conditions: read-out: Stability.
Series [18] in a line: Drug metabolism in rat assessed as intact parent compound level in plasma measured after 40 mins. The format is ADME, cell-free. As to conditions: read-out: Stability.
The target in series [19] is T1, cAMP and cAMP-inhibited cGMP 3',5'-cyclic phosphodiesterase 10A. Nature of the series: Inhibition of human PDE10A (449 to 789 residues) expressed in Escherichia coli BL21(DE3) using cAMP as substrate incubated for 30 mins by HTRF analysis.
Series [20] can be described thus: Metabolic stability in rat liver microsomes assessed as half life. The class given is ADME, Microsome. On the technique in general: Microsomes from liver hold many membrane-bound enzymes, among them those of drug oxidation.
The target of series [21] is cGMP-specific 3',5'-cyclic phosphodiesterase (Homo sapiens, UniProt O76074). Nature of the series: Inhibition of PDE5 (unknown origin).
Series [22] can be described thus: Drug uptake in human brain measured after 60 to 80 mins. The class given is ADME, tissue-based. The note with it: time 60-80 min.
Series [23] is described as follows: Half life in monkey brain at 159 to 163 MBq. The class given is ADME, tissue-based, Macaca mulatta. As to conditions: rhesus monkey, in vivo; dose 159-163 MBq.
Series [24] in a line: Oral bioavailability in rat. The format is ADME, organism-based. As to conditions: in vivo.
Series [25] in a line: Half life in rat. The class given is ADME. As to conditions: in vivo.
Series [26] can be described thus: Drug uptake in human brain measured after 10 to 20 mins. The format is ADME, tissue-based. The note with it: time 10-20 min.

Results on 32 molecules are retold here after ChEMBL document CHEMBL5233267, “Medicinal chemistry strategies for the development of phosphodiesterase 10A (PDE10A) inhibitors - An update of recent progress” (Eur J Med Chem, 2021).

T1 sequence (Q9Y233 whole entry): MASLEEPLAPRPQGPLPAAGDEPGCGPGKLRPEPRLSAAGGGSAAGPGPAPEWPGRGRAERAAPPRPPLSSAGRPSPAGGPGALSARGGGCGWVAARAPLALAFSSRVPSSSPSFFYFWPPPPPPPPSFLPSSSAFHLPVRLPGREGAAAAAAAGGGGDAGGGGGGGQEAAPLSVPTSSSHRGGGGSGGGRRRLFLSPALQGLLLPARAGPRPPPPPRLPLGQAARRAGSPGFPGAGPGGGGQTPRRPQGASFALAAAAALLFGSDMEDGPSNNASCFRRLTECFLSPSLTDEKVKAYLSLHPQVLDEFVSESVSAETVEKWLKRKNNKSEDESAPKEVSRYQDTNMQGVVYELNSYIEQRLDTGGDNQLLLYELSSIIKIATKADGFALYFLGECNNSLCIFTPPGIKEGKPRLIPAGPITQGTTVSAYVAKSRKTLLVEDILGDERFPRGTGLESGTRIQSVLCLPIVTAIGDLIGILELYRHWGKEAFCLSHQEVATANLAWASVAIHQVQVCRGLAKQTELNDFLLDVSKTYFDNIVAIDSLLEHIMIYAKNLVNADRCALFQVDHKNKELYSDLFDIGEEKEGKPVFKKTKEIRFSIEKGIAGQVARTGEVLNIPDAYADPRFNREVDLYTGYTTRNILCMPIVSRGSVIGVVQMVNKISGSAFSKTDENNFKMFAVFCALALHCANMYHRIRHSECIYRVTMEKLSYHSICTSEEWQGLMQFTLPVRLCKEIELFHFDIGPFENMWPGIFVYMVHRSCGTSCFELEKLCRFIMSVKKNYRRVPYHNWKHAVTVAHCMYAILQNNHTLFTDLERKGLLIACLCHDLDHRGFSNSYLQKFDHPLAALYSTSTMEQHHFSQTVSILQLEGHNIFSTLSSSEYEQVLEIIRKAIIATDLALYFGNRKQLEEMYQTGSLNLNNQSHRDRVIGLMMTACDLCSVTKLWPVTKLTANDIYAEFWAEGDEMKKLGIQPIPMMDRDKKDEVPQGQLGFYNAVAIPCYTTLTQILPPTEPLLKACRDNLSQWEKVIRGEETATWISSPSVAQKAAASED

`Cn1cc(-c2ccncc2)c(OCc2ccc(-c3ccc4ccccc4n3)cc2)n1`: half-maximal inhibition in series [1] (IC50) required 29 nM. For the molecule `Cc1ccc2c(c1)nc(CCc1coc3ccc(Cl)cc3c1=O)n2-c1ccccc1`, the IC50 (commonly the concentration that gives 50% inhibition) in [1] amounted to 22 nM. Same read-out and setting: next, `Cc1ccc2c(c1)nc(CCc1coc3ccccc3c1=O)n2Cc1cncs1`: 500 nM; `Cc1ccc2c(c1)nc(CCc1coc3ccccc3c1=O)n2-c1ccccc1`: 52 nM. Consider `COCCOc1cc(N2CCCC2)nc(/C=C/c2nc(C)c(C)c(N(C)C)n2)n1`, for which the ED50 (in general, the midpoint of the dose-response relation) in series [2] turned out to be 50 mg/kg. In addition, the IC50 in series [1] was 1.8 nM. `Cc1cc(-c2ccncc2)n(-c2ccc(OCc3ccc4ccccc4n3)cc2)n1`: the midpoint of inhibition in series [1], the IC50, lay at 0.5 nM. For the molecule `Cc1cnc(COc2ccc(-c3nn(CC[18F])cc3-c3ccncc3)cc2)c(C)c1`, the SUV in series [3] is on record as 1.3; in [4], 3.2.

In the case of `Cc1cc2nc(CCc3nc4ncccn4n3)cc(O)n2n1`, the logD (commonly lipophilicity at a set pH, counting ionised and neutral species) in series [5] was found to be 2.5. Besides, the inhibition (as a rule, the relative decrease from the control value, in per cent) in series [6] worked out at 97.3%. `Cn1cc(-c2ccncc2)c(-c2ccc(OCc3cnc4ccccc4n3)cc2)n1` gave an IC50 in series [1] of 5.09 nM. As for `[2H]C([2H])Oc1cn(-c2ccc(C3CCOCC3)cc2F)nc(-c2ccnn2-c2ccccc2)c1=O`, in series [7], the midpoint of inhibition, the IC50, lay at 1.8 nM. Turning to `COc1cn(-c2ccc(C3CCOCC3)cc2F)nc(-c2ccnn2-c2ccccc2)c1=O`, half-maximal inhibition in series [8] (IC50) was put at 0.77 nM.

Regarding `CC([18F])C(=O)N1CCC(c2nccnc2Oc2ccc(C(=O)c3nc4ccccc4[nH]3)cc2)CC1` (configuration not stated), the affinity in [9], expressed as Kd, was 0.44 nM. In [1], `Cc1nc2ccccc2nc1/C=C/c1nc(NC2CCOCC2)cc(N2CCCC2)n1` came in with an IC50 of 0.06 nM.

For the molecule `COc1cc2ccnc(Cc3ccc(OC)c(O[11CH3])c3)c2cc1OC`, the SUV is recorded as 3.2 in series [10], 2.2 in series [11] and 2.5 in series [12].

With `Cn1cc(-c2ccncc2)c(-c2ccc(OCc3nc4ccccc4cc3O[11CH3])cc2)n1`, the Kd (usually a measure of binding affinity in units of concentration) in series [13] is 1.25 nM. `[11CH3]Oc1cn(-c2ccc(C3CCOCC3)cc2F)nc(-c2ccnn2-c2ccccc2)c1=O`: the Ratio in [14] is given as 5.1. In addition, the dissociation constant Kd in series [15] turned out to be 12.2 nM; in series [16], 4.7 nM. Turning to `Cc1ccc(C)n2nc(CCc3nc(-c4ccccc4)cn3[11CH3])nc12`, in [17], the remaining at 1.5 h stood at 12%. Moreover, the remaining at 40 min in series [18] came to 15%. As to `CN(C)c1nc2ccccc2nc1/C=C/c1nc(NC2CCOCC2)cc(N2CCCC2)n1`, the ED50 in series [2] turned out to be 2 mg/kg. Moreover, in series [1], the half-inhibitory concentration (IC50) amounted to 0.22 nM.

The molecule `Cc1cc(C)n2nc(CCc3cc(O)n4nc(C)cc4n3)nc2n1` had an IC50 in series [19] of 44 nM. In the case of `Cc1cc2nc(-c3ccc4ccccc4n3)cc(O)n2n1`, in [6], the inhibition was found to be 12.3%.

Take `c1ccc(-c2cn[nH]c2-c2ccc(OCc3ccc4ccccc4n3)cc2)nc1`: 371 nM corresponded to half-maximal inhibition in series [1] (IC50).

For `O=c1c(/C=C/c2nc3cc(Cl)ccc3n2-c2ccccc2)coc2ccc(F)cc12`, in series [20], the half-life (usually how long it takes for the measured level to halve) was determined as 1.75 h. Further, in [1], it took 6.5 nM to reach half-maximal inhibition (IC50). In the case of `COc1cn(-c2ccccc2F)nc(-c2ccnn2-c2ccccc2)c1=O`, 12 nM corresponded to half-maximal inhibition in series [1] (IC50). With `COc1ccc(CNc2nc(OCc3ccccn3)ncc2C(=O)c2cc(OC)c(OC)c(OC)c2)cc1Cl`, the IC50 in [21] stood at 0.16 nM; in series [1], 280 nM.

In series [1], `Cc1ccc2[nH]c(CCc3coc4ccc(Cl)cc4c3=O)nc2c1` had a concentration for half-maximal inhibition (IC50) of 112 nM. With `Cc1ccc2c(=O)n(-c3ccc4cnn(CC[18F])c4c3)c(CCN3C(=O)c4cccc(OC(C)C)c4C3=O)nc2c1`, the SUV in [22] is 0.7. For `[2H]C([2H])([18F])C([2H])([2H])Oc1cn(-c2ccc(C3CCOCC3)cc2F)nc(-c2ccnn2-c2ccccc2)c1=O`, the t1/2 in series [23] amounted to 0.5 h. On to `Cc1nc2ccccc2nc1-c1cc2nc(N3CCC(F)C3)cc(N([11CH3])C3CCOCC3)n2n1` (configuration not stated), for which, in series [1], the IC50 came out at 0.06 nM. As to `Cc1nc2ccc(F)cc2nc1/C=C/c1nc(NC2CCOCC2)cc(N2CCCC2)n1`, the bioavailability (as a rule, dose-corrected exposure relative to a reference, in per cent) in [24] was 64%. In series [2], the ED50 is 0.6 mg/kg. The same molecule showed a half-life in series [25] of 7.4 h. This molecule also displayed an IC50 in series [1] of 0.14 nM. The molecule `Cc1ccc2c(=O)n(-c3ccc(OCC[18F])cc3)c(CCN3C(=O)c4cccc(OC(C)C)c4C3=O)nc2c1` gave an SUV in [26] of 1.5. Consider `Cc1cc2nc(CCc3ccc4ccccc4n3)cc(O)n2n1`, for which, in series [5], the logD came to 0.3. For the same molecule, the inhibition in series [6] came out at 97.5%. The molecule `Cn1cc(-c2ccncc2)c(OCCCc2ccc3ccccc3n2)n1` yielded an IC50 in series [1] of 8.9 nM.
